This is an account of results in patent publication US9901618B2, “Cell-permeable peptide system for treating diseases caused by glutamate excitotoxicity” (priority 2014, dated 2018).

“Also recorded” adds a separate entry of the source.

Assay [1] concerns presynaptic release of glutamate. Put plainly: Glutamate ([3H]D-Asp) release from superfused cortical synaptosomes. It counts as cell-based, mouse. The settings on record: for exocytotic release of [3H] D-Asp vs. control: C57/BL6 cortical synaptosomes, 8 mM KCl 90 s, 100 μM NMDA 10 min Mg2+-free, 50 μM (S)-AMPA 10 min.
The next assay has as its system JNK. Put plainly: Western blot of JNK phosphorylation in cortical synaptosomes. The following applies: for phosphorylation of JNK (p-JNK/JNK) vs. control=100%: wild-type synaptosomes, stimulus alone (100 μM NMDA 10 min Mg2+-free; AMPA 10 min; KCl 90 s). On the technique in general: A western blot detects proteins with antibodies after separation by electrophoresis.
In assay [2] the test system is presynaptic NMDA receptors. In words: mEPSC patch-clamp recording in cortex slices (NMDA-dependent presynaptic glutamate release). It counts as cell-based, mouse. The settings on record: for effect on D-AP5 block of NMDA presynaptic receptor (mEPSC inter-events): peptide added separately at 10 μM, 30 min before recording. In general terms: In patch-clamp work, channel activity is measured electrically.

The test system of assay [3] is presynaptic NMDA receptors. In words: Paired-pulse ratio of evoked EPSCs, patch-clamp in entorhinal cortex slices. It counts as cell-based, mouse. The settings on record: D-AP5 50 μM perfusion, C57BL6/J slices. How it is done: The presynaptic NMDA receptors on the glutamatergic terminals are activated by the spontaneously-released glutamate and, by means of a positive feedback mechanism, determine a tonic liberation of glutamate. Electrophysiological recordings were made in order to investigate the functional role of JNK in the release of glutamate. For this reason, a parameter termed paired-pulse facilitation (PPF) was measured from pyramidal neurons of cerebral slices of entorhinal cortex (EC)-obtained from adult mice C57BL6/J incubated with or without the inhibitor of JNK, L-JNKi1 (2 μM for 30 min). Such paired-pulse facilitation (PPF) is a paradigm studied by means of the electrophysiological recording technique in patch-clamp configuration.

The subject of another assay is Syntaxin 1a. Put plainly: Western blot of STX1a (S14) phosphorylation in synaptosomes. It counts as cell-based, mouse.
[4] abbreviates: synaptosomes treated with D-AP5.

Consider `Cc1onc(O)c1C[C@H](N)C(=O)O` [(S)-AMPA], for which the “exocytotic release of [3H] D-Asp vs. control” value in assay [1] worked out at 98±11%. In addition, the “phosphorylation of JNK (p-JNK/JNK) vs. control=100%” value in the assay on JNK is “unable to increase the phosphorylation of JNK”.
In the case of `NC(CCCP(=O)(O)O)C(=O)O` [D-AP5], in assay [2], the mEPSC amplitude entry is “neither the cumulative amplitude nor the mean of the same events were affected; also recorded: never affected”; the mEPSC inter-event intervals result is on record as “increase of the cumulative distribution of the inter-event intervals”; the “mEPSC inter-event intervals and amplitude” value was “no significant changes”. In addition, the “mEPSC inter-event intervals (IEI)” value in assay [2] (D-AP5, C57BL6/J slices, tetrodotoxin, picrotoxin, MK-801 in pipette) is “reversible increase”. Also, the “paired-pulse ratio (PPR) at 50 ms interval” value in assay [3] is reported as “irreversibly reduced”. Besides, the “change in pSTX1a vs. Ctrl (100%) with D-AP5” value in the assay with Syntaxin 1a (setting [4]) was −10±7.2%. The “change in pJNK vs. Ctrl (100%) with D-AP5” value in the assay with JNK (setting [4]) is reported as “+10±8.9%”.
As to `[Cl-].[K+]` [KCl], in assay [1], the “exocytotic release of [3H] D-Asp vs. control” value came to 158±37%. In addition, the “phosphorylation of JNK (p-JNK/JNK) vs. control=100%” value in the assay on JNK is given as “unable to increase the phosphorylation of JNK”.
On to `CN[C@H](CC(=O)O)C(=O)O` [NMDA, N-Methyl D-Aspartate], for which the “phosphorylation of STX1a (S14) after NMDA alone” value in the assay on Syntaxin 1a (NMDA 10 min) is reported as “slight but non-significant decrease”. In addition, in assay [1], the “exocytotic release of [3H] D-Asp vs. control” value turned out to be 202±21%. The “NMDA-induced release of [3H] D-Asp with respect to the overflow basal” value in assay [1] (JNK2-KO mouse synaptosomes, NMDA 10 min) is 28±19%. For the same compound, the “NMDA-induced phosphorylation of JNK” value with JNK (JNK2-KO mouse synaptosomes) is recorded as “totally eliminated”. Further, the “NMDA-induced increase of pJNK vs. control=100%” value with JNK (JNK3-KO mouse synaptosomes) is listed as “+76±10%”.
Regarding “GRKKRRQRRRPPIEQSIEQEEGLNRS (SEQ ID NO: 5) (Muridae) [JGRi1]”, in assay [2], the “effect on D-AP5 block of NMDA presynaptic receptor (mEPSC inter-events)” value is reported as “reduced the functionality of the inhibitor D-AP5”.
On to “GRKKRRQRRRPPMSEYNATQSDYRER (SEQ ID NO: 8) (Muridae) [JGRi2]”, for which the “effect on D-AP5 block of NMDA presynaptic receptor (mEPSC inter-events)” value in assay [2] is “reduced the functionality of the inhibitor D-AP5”.
